From patent US7420056B2, “Substituted bicyclic imidazo-3-ylamine compounds” (Gruenenthal GmbH, priority 2004, dated 2008)
Structures can show the parent of a compound that is named as a salt. Where two headings read alike, the source gives them in different places.

Legend:
[1] = biological target: mGluR5 receptor (Sus scrofa, UniProt I3LUI7); test: Affinity for the mGluR5 receptor: inhibition of 3[H]-MPEP binding in pig brain homogenate; details: for IC50: 3[H]-MPEP binding; for inhibition at 10 µM: 10 μM compound, 5 nM 3[H]-MPEP, read-out: mGluR5 receptor inhibition of ^3[H]-MPEP binding [10 μM] in % at a concentration of the example compounds of 10 μM
In short: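 Test compounds were screened at 10 μM for displacement of 5 nM [3H]-MPEP from pig brain homogenate (450 μg protein, pH 8.0 Hepes buffer) over 60 min at room temperature. After filtration, scintillation counting gave the read-out. 10 μM unlabelled MPEP set nonspecific binding.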

[2] = tested on: Mouse; test: Formaldehyde test in mice; assay type: in vivo
[3] = tested on: Rat; test: Formaldehyde test (rat), phase 2; assay type: in vivo
[4] = ip, read-out: ED50 value, Mouse i.p.
[5] = ip, read-out: ED50 value, Rat i.p.
[6] = po, read-out: ED50 value, Rat p.o.

Sequence of mGluR5 receptor (I3LUI7 19-1212): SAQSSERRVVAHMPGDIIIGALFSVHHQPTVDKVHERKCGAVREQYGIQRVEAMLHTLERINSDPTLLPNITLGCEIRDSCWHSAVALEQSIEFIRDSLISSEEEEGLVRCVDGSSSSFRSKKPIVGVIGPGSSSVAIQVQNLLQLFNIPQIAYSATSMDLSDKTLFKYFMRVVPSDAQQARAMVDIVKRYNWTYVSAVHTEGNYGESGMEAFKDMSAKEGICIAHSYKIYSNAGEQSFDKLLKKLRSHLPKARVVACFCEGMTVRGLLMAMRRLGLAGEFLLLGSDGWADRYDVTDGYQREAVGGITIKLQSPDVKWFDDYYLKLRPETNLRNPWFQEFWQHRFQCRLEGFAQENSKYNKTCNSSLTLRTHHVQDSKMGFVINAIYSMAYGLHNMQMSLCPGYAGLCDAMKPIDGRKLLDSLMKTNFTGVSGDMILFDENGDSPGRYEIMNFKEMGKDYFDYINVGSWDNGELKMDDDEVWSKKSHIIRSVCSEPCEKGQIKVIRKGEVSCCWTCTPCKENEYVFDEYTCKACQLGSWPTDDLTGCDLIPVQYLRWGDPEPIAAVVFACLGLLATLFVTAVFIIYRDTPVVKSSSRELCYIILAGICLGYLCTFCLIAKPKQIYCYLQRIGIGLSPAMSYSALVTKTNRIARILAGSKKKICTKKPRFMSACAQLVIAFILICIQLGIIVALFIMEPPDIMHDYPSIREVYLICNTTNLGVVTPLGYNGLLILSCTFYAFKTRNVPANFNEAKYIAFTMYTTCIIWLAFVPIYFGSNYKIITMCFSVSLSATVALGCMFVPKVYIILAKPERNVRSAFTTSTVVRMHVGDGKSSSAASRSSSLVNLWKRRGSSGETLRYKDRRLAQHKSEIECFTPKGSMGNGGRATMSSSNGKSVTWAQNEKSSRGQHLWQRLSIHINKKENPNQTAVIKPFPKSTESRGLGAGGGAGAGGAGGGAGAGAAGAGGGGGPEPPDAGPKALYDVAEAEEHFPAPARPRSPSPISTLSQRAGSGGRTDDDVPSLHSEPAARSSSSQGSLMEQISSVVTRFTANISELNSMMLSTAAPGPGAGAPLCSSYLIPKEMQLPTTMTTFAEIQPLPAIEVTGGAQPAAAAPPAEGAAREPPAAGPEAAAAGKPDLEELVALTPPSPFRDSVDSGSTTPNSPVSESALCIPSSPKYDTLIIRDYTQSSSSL

SMILES	IC50 [1] [nM]	inhibition at 10 µM [1] [%]	also measured
CC(C)(C)Nc1c(-c2ccc(C#Cc3ccccn3)s2)nc2cnccn12.Cl [Example 91, N-tert-butyl-2-(5-(pyridin-2-ylethynyl)thiophen-2-yl)imidazo[1,2-a]pyrazin-3-amine hydrochloride]	5.4		ED50 [2, 4]: 1.2 mg/kg; ED50 ([2]; po, read-out: ED50 value, Mouse p.o.): 2.3 mg/kg; ED50 [3, 5]: 4.7 mg/kg; ED50 [3, 6]: 7.3 mg/kg
CC(C)(C)Nc1c(-c2ccc(C#Cc3ccncc3)s2)nc2cnccn12.Cl [Example 127, N-tert-butyl-2-(5-(pyridin-4-ylethynyl)thiophen-2-yl)imidazo[1,2-a]pyrazin-3-amine hydrochloride]	8.4		ED50 [2, 4]: 7.7 mg/kg; ED50 [3, 5]: 2.2 mg/kg; ED50 [3, 6]: 5.9 mg/kg
CC(C)(C)Nc1c(-c2ccc(C#Cc3ccccn3)cc2)nc2cnccn12 [Example 116, N-tert-butyl-2-(4-(pyridin-2-ylethynyl)phenyl)imidazo[1,2-a]pyrazin-3-amine]	76		ED50 [2, 4]: 15.2 mg/kg
Cc1cccc(C#Cc2cccc(-c3nc4ccccn4c3NC(C)(C)CC(C)(C)C)c2)n1 [Example 289, 2-(3-((6-methylpyridin-2-yl)ethynyl)phenyl)-N-(2,4,4-trimethylpentan-2-yl)imidazo[1,2-a]pyridin-3-amine]		51	
Clc1ccc2nc(-c3ccc(C#Cc4ccccn4)s3)c(NC3CCCC3)n2c1 [Example 310, 6-chloro-N-cyclopentyl-2-(5-(pyridin-2-ylethynyl)thiophen-2-yl)imidazo[1,2-a]pyridin-3-amine]		86	
Cc1ccc2nc(-c3ccc(C#Cc4ccccn4)o3)c(NC3CCCC3)n2c1 [Example 272, N-cyclopentyl-6-methyl-2-(5-(pyridin-2-ylethynyl)furan-2-yl)imidazo[1,2-a]pyridin-3-amine]		72	
COC(=O)c1cccc(C#Cc2ccc(-c3nc4cnccn4c3NC(C)(C)C)s2)c1 [Example 174, methyl-3-((5-(3-(tert-butylamino)imidazo[1,2-a]pyrazin-2-yl)thiophen-2-yl)ethynyl)benzoate]	840		
CNc1c(-c2ccc(C#Cc3ccccn3)s2)nc2cnccn12 [Example 322, N-methyl-2-(5-(pyridin-2-ylethynyl)thiophen-2-yl)imidazo[1,2-a]pyrazin-3-amine]	120		
CC(C)(C)Nc1c(-c2ccc(C#Cc3cnccn3)s2)nc2cnccn12 [Example 107, N-tert-butyl-2-(5-(pyrazin-2-ylethynyl)thiophen-2-yl)imidazo[1,2-a]pyrazin-3-amine]	52		
CC(C)c1ccn2c(NC(C)(C)C)c(-c3cccc(C#Cc4ccccn4)c3)nc2c1 [Example 306, N-tert-butyl-7-isopropyl-2-(3-(pyridin-2-ylethynyl)phenyl)imidazo[1,2-a]pyridin-3-amine]		76	
CC(C)(C)Nc1c(-c2ccc(C#Cc3ncccn3)s2)nc2ccccn12 [Example 325, tert-butyl-[2-(5-pyrimidin-2-ylethynyl-thiophen-2-yl)-imidazo[1,2-a]pyridin-3-yl]-amine hydrochloride]	13		
CC(C)(C)Nc1c(-c2ccc(C#Cc3ccccn3)o2)nc2ncccn12 [Example 258, N-tert-butyl-2-(5-(pyridin-2-ylethynyl)furan-2-yl)imidazo[1,2-a]pyrimidin-3-amine]		86	
CCc1ccn2c(NCc3ccccc3OC)c(-c3ccc(C#Cc4ccccc4)s3)nc2c1 [Example 44, [7-ethyl-2-(5-phenylethynyl-thiophen-2-yl)-imidazo[1,2-a]pyridin-3-yl]-(2-methoxy-benzyl)-amine]		75	
CCc1ccn2c(Nc3ccccc3F)c(-c3ccc(C#Cc4ccccc4)s3)nc2c1 [Example 48, [7-ethyl-2-(5-phenylethynyl-thiophen-2-yl)-imidazo[1,2-a]pyridin-3-yl]-(2-fluoro-phenyl)-amine]		82	
CC(C)(C)Nc1c(-c2ccc(C#Cc3ccccc3F)s2)nc2cnccn12 [Example 105, N-tert-butyl-2-(5-((2-fluorophenyl)ethynyl)thiophen-2-yl)imidazo[1,2-a]pyrazin-3-amine hydrochloride]	150		
CCc1ccn2c(NC3CCCCC3)c(-c3ccc(C#Cc4ccccn4)s3)nc2c1 [Example 298, N-cyclohexyl-7-ethyl-2-(5-(pyridin-2-ylethynyl)thiophen-2-yl)imidazo[1,2-a]pyridin-3-amine]		95	
CC(C)(C)Nc1c(-c2ccc(C#Cc3ccccn3)o2)nc2ccccn12 [Example 285, N-tert-butyl-2-(5-(pyridin-2-ylethynyl)furan-2-yl)imidazo[1,2-a]pyridin-3-amine]		88	
Cc1cc(C#Cc2ccccc2)sc1-c1nc2cnccn2c1NC(C)(C)C [Example 182, N-tert-butyl-2-(3-methyl-5-(phenylethynyl)thiophen-2-yl)imidazo[1,2-a]pyrazin-3-amine hydrochloride]	8850		
COc1cccc(CNc2c(-c3ccc(C#Cc4ccccc4)s3)nc3cccc(C)n23)c1 [Example 21, (3-methoxy-benzyl)-[5-methyl-2-(5-phenylethynyl-thiophen-2-yl)-imidazo[1,2-a]pyridin-3-yl]-amine]		91	
CC(C)(C)CC(C)(C)Nc1c(-c2ccc(C#Cc3ccccc3)s2)nc2cnccn12 [Example 56, [2-(5-phenylethynyl-thiophen-2-yl)-imidazo[1,2-a]pyrazin-3-yl]-(1,1,3,3-tetramethyl-butyl)-amine]		100	
CC(C)(C)Nc1c(-c2cccc(C#Cc3ccccn3)c2)nc2ccccn12 [Example 261, N-tert-butyl-2-(3-(pyridin-2-ylethynyl)phenyl)imidazo[1,2-a]pyridin-3-amine]		79	
C(#Cc1csc(-c2nc3cnccn3c2NCCc2cccs2)c1)c1ccccc1 [Example 203, 2-(4-(phenylethynyl)thiophen-2-yl)-N-(2-(thiophen-2-yl)ethyl)imidazo[1,2-a]pyrazin-3-amine]		60	
Cc1cccn2c(Nc3ccco3)c(-c3ccc(C#Cc4ccccc4)o3)nc12 [Example 223, N-(furan-2-yl)-8-methyl-2-(5-(phenylethynyl)furan-2-yl)imidazo[1,2-a]pyridin-3-amine]		80	
CC(C)(C)Nc1c(-c2ccc(C#Cc3ccccn3)s2)nc2ccc(Cl)cn12 [Example 311, N-tert-butyl-6-chloro-2-(5-(pyridin-2-ylethynyl)thiophen-2-yl)imidazo[1,2-a]pyridin-3-amine]		86	
Cc1ccc2nc(-c3ccc(C#Cc4ccccc4)nc3C)c(NC(C)(C)CC(C)(C)C)n2c1 [Example 271, 6-methyl-2-(2-methyl-6-(phenylethynyl)pyridin-3-yl)-N-(2,4,4-trimethylpentan-2-yl)imidazo[1,2-a]pyridin-3-amine]		31	
CC(C)(C)Nc1c(-c2ccc(C#Cc3cccs3)s2)nc2cnccn12.Cl [Example 110, N-tert-butyl-2-(5-(thiophen-2-ylethynyl)thiophen-2-yl)imidazo[1,2-a]pyrazin-3-amine hydrochloride]	49		% inhibition, Rat p.o. ([3]; p.o., at 21.5 mg/kg): 61% at 21.5
CC(C)(C)Nc1c(-c2ccc(C#Cc3ncccc3F)s2)nc2cnccn12 [Example 159, N-tert-butyl-2-(5-((3-fluoropyridin-2-yl)ethynyl)thiophen-2-yl)imidazo[1,2-a]pyrazin-3-amine hydrochloride]	10		
COC(=O)c1nccn2c(NC(C)(C)CC(C)(C)C)c(-c3ccc(C#Cc4ccccc4)s3)nc12 [Example 84, methyl-2-(5-(phenylethynyl)thiophen-2-yl)-3-(2,4,4-trimethylpentan-2-ylamino)imidazo[1,2-a]pyrazine-8-carboxylate]	1320		
C(#Cc1ccc(-c2nc3cnccn3c2NC2CCCC2)o1)c1ccccn1 [Example 245, N-cyclopentyl-2-(5-(pyridin-2-ylethynyl)furan-2-yl)imidazo[1,2-a]pyrazin-3-amine]		92	
CC(C)(C)Nc1c(-c2ccc(C#Cc3ncc(F)cc3F)s2)nc2cnccn12 [Example 175, N-tert-butyl-2-(5-((3,5-difluoropyridin-2-yl)ethynyl)thiophen-2-yl)imidazo[1,2-a]pyrazin-3-amine]	51		
